Consider 33 molecules from ChEMBL document CHEMBL1146181, “7'-substituted benzothiazolothio- and pyridinothiazolothio-purines as potent heat shock protein 90 inhibitors” (J Med Chem, 2006).

For data set [1], the target named is T1, Heat shock protein HSP90 (Homo sapiens, UniProt P07900+P08238). The data set can be described thus: Ability to degrade Her2 in MCF7 cells. In kind it is functional, cell-based.
The test system of the next data set is MCF7. As to the kind of experiment: Viability of MCF7 cells by MTS assay. In kind it is functional, cell-based. To be noted: Homo sapiens. On the technique in general: Tetrazolium dyes change colour on reduction, which living cells bring about.
Data set [2] in a line: Solubility in simulated gastric fluid at pH 2.0. In kind it is physicochemical.
Data set [3] is described as follows: Solubility in simulated intestinal fluid at pH 6.5. Type of data set: physicochemical.
The nature of data set [4]: Solubility in Balb/C mouse serum at pH 7.4. Type of data set: ADME, cell-free.
In data set [5] the target is T1, Heat shock protein HSP90. Particulars: mcf7.
Description: Binding affinity to Hsp90 in MCF7 cell lysate
The test system of the next data set is Mus musculus. The data set can be described thus: AUC in Balb/C mouse at 100 mg/kg, po. The arrangement: dose 100 mg/kg, route oral. In kind it is ADME, organism-based, Plasma. Particulars: in vivo.
Another data set concerns NCI-N87. As to the kind of experiment: Inhibition of N87 cell line xenografted in mouse at 200 mg/kg, po. In kind it is functional, Homo sapiens. To be noted: read-out: TGI.
A short description of data set [6]: Cmax in Balb/C mouse at 100 mg/kg, po. Type of data set: ADME, organism-based. Set-up: dose 100 mg/kg, route oral. Particulars: in vivo.

Each structure is given as a SMILES string. Values after ≈ are worked out from the molar mass of the structure shown.

Regarding `N#CCCCCn1c(Sc2nc3cccc(Cl)c3s2)nc2c(N)ncnc21`, the half-maximal inhibitory concentration (IC50) – broadly, the point on the concentration scale where inhibition reaches its midpoint – at Heat shock protein HSP90 [1] came to 110 nM. The values for the EC50 in the data set with MCF7 and on Heat shock protein HSP90 [5] were 300 nM and 100 nM, respectively. The values for the solubility in data set [2], in data set [3] and in [4] were 58.7 µg/mL (≈ 141 µM), 4.4 µg/mL (≈ 10.6 µM) and 31.3 µg/mL (≈ 75.3 µM), respectively.

`CCCCn1c(Sc2nc3cncc(Cl)c3s2)nc2c(N)ncnc21` registered an IC50 against Heat shock protein HSP90 [1] of 280 nM. For the same molecule, in the data set with MCF7, the EC50 (as a rule, the concentration giving half of the maximal effect) is 1000 nM.

`CC(=O)OCCCn1c(Sc2nc3cccc(Cl)c3s2)nc2c(N)ncnc21` registered an IC50 against Heat shock protein HSP90 [1] of 90 nM. Besides, the EC50 in the data set with MCF7 is 200 nM; on Heat shock protein HSP90 [5], 160 nM. Besides, the values for the solubility in data set [2], in data set [3] and in data set [4] were 220 µg/mL (≈ 506 µM), 16 µg/mL (≈ 36.8 µM) and 9 µg/mL (≈ 20.7 µM), respectively. In addition, the AUC (commonly the area under the concentration-time curve, a measure of exposure) with Mus musculus was determined as 1040 ng·h/mL.

`CC(=O)OCCn1c(Sc2nc3cccc(Cl)c3s2)nc2c(N)ncnc21`: the IC50 on Heat shock protein HSP90 [1] was 150 nM. Also, in the data set with MCF7, the EC50 came to 300 nM.

On Heat shock protein HSP90 [1], `CCCCn1c(Sc2nc3cncc(Br)c3s2)nc2c(N)ncnc21` registered an IC50 of 400 nM. This molecule also gave an EC50 in the data set on MCF7 of 4000 nM.

The molecule `CC(=O)OCCCn1c(Sc2nc3cncc(Cl)c3s2)nc2c(N)ncnc21` gave an IC50 against Heat shock protein HSP90 [1] of 170 nM. The same molecule registered an EC50 in the data set on MCF7 of 1000 nM.

With `CCCCn1c(Sc2nc3ccccc3s2)nc2c(N)ncnc21`, on Heat shock protein HSP90 [1], the IC50 amounted to 5000 nM. Besides, the EC50 in the data set on MCF7 was determined as 10000 nM.

`CCCn1c(Sc2nc3cccc(Cl)c3s2)nc2c(N)ncnc21`: the IC50 on Heat shock protein HSP90 [1] is 250 nM. Moreover, the response in the data set on MCF7 was half-maximal at 850 nM (EC50).

Molecule `CC(=O)OCCCCn1c(Sc2nc3cccc(Cl)c3s2)nc2c(N)ncnc21` came in with an IC50 against Heat shock protein HSP90 [1] of 130 nM. Also, the EC50 in the data set with MCF7 turned out to be 240 nM; on Heat shock protein HSP90 [5], 140 nM. Besides, the results for the solubility in [2] and in [3] were 46 µg/mL (≈ 102 µM) and 3 µg/mL (≈ 6.68 µM), respectively.

In the case of `CC(C)NCCCn1c(Sc2nc3cccc(Cl)c3s2)nc2c(N)ncnc21`, the IC50 on Heat shock protein HSP90 [1] worked out at 170 nM. Besides, a half-maximal effect in the data set on MCF7 (EC50) was put at 500 nM.

`CCCCn1c(Sc2nc3ccc(Cl)c(Cl)c3s2)nc2c(N)ncnc21` gave an IC50 against Heat shock protein HSP90 [1] of 25000 nM. This molecule showed an EC50 with MCF7 of 20000 nM.

Take `Nc1ncnc2c1nc(Sc1nc3cccc(Cl)c3s1)n2CCCCO`: the IC50 against Heat shock protein HSP90 [1] stood at 150 nM. The midpoint of the response with MCF7, the EC50, lay at 200 nM.

`CCn1c(Sc2nc3cccc(Cl)c3s2)nc2c(N)ncnc21` returned an IC50 on Heat shock protein HSP90 [1] of 200 nM. This molecule came in with an EC50 with MCF7 of 800 nM.

Take `CCCCn1c(Sc2nc3cccc(F)c3s2)nc2c(N)ncnc21`: the IC50 at Heat shock protein HSP90 [1] was determined as 200 nM. Moreover, the EC50 in the data set with MCF7 came to 1000 nM.

`Nc1ncnc2c1nc(Sc1nc3cccc(Cl)c3s1)n2CCNC1CC1` returned an IC50 against Heat shock protein HSP90 [1] of 110 nM. Besides, the EC50 is 300 nM in the data set with MCF7 and 130 nM at Heat shock protein HSP90 [5]. The solubility (commonly the dissolved amount per volume that the medium holds) in [2] was 245 µg/mL (≈ 586 µM); in data set [3], 21 µg/mL (≈ 50.2 µM); in data set [4] it was 59 µg/mL (≈ 141 µM). This molecule also showed an AUC in the data set with Mus musculus of 7310 ng·h/mL. Besides, the inhibition in vivo at 200 mg/kg in the data set on NCI-N87 stood at 56%. Also, in data set [6], the concentration peaked (Cmax) at 4510 ng/mL.

For the molecule `CCCCn1c(Sc2nc3cccc(OC)c3s2)nc2c(N)ncnc21`, the IC50 against Heat shock protein HSP90 [1] worked out at 190 nM. For the same molecule, the values for the EC50 in the data set with MCF7 and at Heat shock protein HSP90 [5] were 230 nM and 200 nM, respectively. Further, the solubility is 35 µg/mL (≈ 90.6 µM) in data set [2], 2 µg/mL (≈ 5.17 µM) in data set [3] and 18 µg/mL (≈ 46.6 µM) in data set [4].

Take `CCCCn1c(Sc2nc3cccc(Cl)c3s2)nc2c(N)ncnc21`: the IC50 on Heat shock protein HSP90 [1] is given as 180 nM. Further, it took 250 nM to reach a half-maximal effect with MCF7 (EC50).

Consider `CC(C)(C)NCCn1c(Sc2nc3cccc(Cl)c3s2)nc2c(N)ncnc21`, for which the IC50 against Heat shock protein HSP90 [1] was determined as 140 nM. The same molecule yielded an EC50 with MCF7 of 300 nM.

On to `CCCCn1c(Sc2nc3cccc(Br)c3s2)nc2c(N)ncnc21`, for which, at Heat shock protein HSP90 [1], the IC50 is 330 nM. Moreover, the EC50 in the data set on MCF7 turned out to be 2000 nM.

The molecule `CCCCn1c(Sc2nc3cccc(OCC)c3s2)nc2c(N)ncnc21` had an IC50 against Heat shock protein HSP90 [1] of 100000 nM. In the data set with MCF7, this molecule registered an EC50 of 16000 nM.

At Heat shock protein HSP90 [1], `CC(C)(C)CNCCn1c(Sc2nc3cccc(Cl)c3s2)nc2c(N)ncnc21` returned an IC50 of 35 nM. In addition, the EC50 in the data set with MCF7 was 30 nM. The molecule further displayed a solubility in [4] of 4.9 µg/mL (≈ 10.9 µM).

The molecule `CCCCn1c(Sc2nc3ccc(Cl)cc3s2)nc2c(N)ncnc21` registered an IC50 against Heat shock protein HSP90 [1] of 7000 nM. Also, the EC50 with MCF7 is 20000 nM.

Molecule `CC(C)(C)NCCCn1c(Sc2nc3cccc(Cl)c3s2)nc2c(N)ncnc21` yielded an IC50 against Heat shock protein HSP90 [1] of 150 nM. Also, the EC50 with MCF7 came out at 200 nM. Also, the figures for the solubility in data set [3] and in data set [4] were 138 µg/mL (≈ 307 µM) and 199 µg/mL (≈ 444 µM), respectively.

Molecule `CCCCCn1c(Sc2nc3cccc(Cl)c3s2)nc2c(N)ncnc21` gave an IC50 at Heat shock protein HSP90 [1] of 700 nM. Further, a half-maximal effect in the data set on MCF7 (EC50) was put at 6000 nM.

For `CCOP(=O)(CCn1c(Sc2nc3cccc(Cl)c3s2)nc2c(N)ncnc21)OCC`, in data set [2], the solubility is 98.5 µg/mL (≈ 197 µM).

`CCCCn1c(Sc2nc3cc(Cl)ccc3s2)nc2c(N)ncnc21` gave an IC50 against Heat shock protein HSP90 [1] of 20000 nM. In addition, in the data set on MCF7, the EC50 came to 20000 nM.

In turn, `CCOP(=O)(CCn1c(Sc2nc3cncc(Cl)c3s2)nc2c(N)ncnc21)OCC` displayed an EC50 in the data set with MCF7 of 250 nM. Moreover, the solubility in data set [2] was 124 µg/mL (≈ 248 µM); in data set [3] it was 38.3 µg/mL (≈ 76.6 µM); in data set [4] it was 14 µg/mL (≈ 28 µM).

Molecule `CCCCn1c(Sc2nc3c(Cl)cccc3s2)nc2c(N)ncnc21` displayed an IC50 against Heat shock protein HSP90 [1] of 15000 nM. This molecule yielded an EC50 in the data set with MCF7 of 20000 nM.

Take `Nc1ncnc2c1nc(Sc1nc3cccc(Cl)c3s1)n2CCO`: the IC50 on Heat shock protein HSP90 [1] was found to be 300 nM. The same molecule yielded an EC50 in the data set with MCF7 of 700 nM.

In the data set with MCF7, `CCOP(=O)(CCn1c(Sc2nc3cncc(Br)c3s2)nc2c(N)ncnc21)OCC` registered an EC50 of 100 nM. That is a sub-micromolar value.

`Nc1ncnc2c1nc(Sc1nc3cccc(Cl)c3s1)n2CCN1CCOCC1`: on Heat shock protein HSP90 [1], the IC50 is recorded as 250 nM. For the same molecule, the EC50 was found to be 300 nM with MCF7 and 150 nM on Heat shock protein HSP90 [5].

As for `CCCCn1c(Sc2nc3cccc(C)c3s2)nc2c(N)ncnc21`, on Heat shock protein HSP90 [1], the half-inhibitory concentration (IC50) came out at 300 nM. For the same molecule, the EC50 in the data set on MCF7 was determined as 1300 nM.

In turn, `Nc1ncnc2c1nc(Sc1nc3cccc(Cl)c3s1)n2CCCO` had an IC50 on Heat shock protein HSP90 [1] of 150 nM. In addition, the EC50 in the data set on MCF7 worked out at 250 nM.
